For this experiment, the system named is CEM cells HIV-1 protection, formazan growth assay. Nature of the experiment: NCI AIDS Antiviral Assay. Conditions: for IC50: measured here: growth of uninfected CEM cells. An outline of the steps:
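Five concentrations of each compound were applied to infected and uninfected human CEM cells. Protection from HIV-1 was judged from growth measured with a soluble formazan assay.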

Several values for one entry are separate records, joined by “and”; a condition that tells them apart may be missing. Identical values can stand only once. Activity calls are given as the source filed them.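 How the source made its calls: active means compounds giving half or more protection of infected cells from virus-caused growth loss, again on retest; inactive means the rest.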

This passage reports EC50, IC50 and outcome results from PubChem BioAssay AID179 (DTP/NCI, 2004).

By EC50 is commonly meant the concentration at which the effect is half-maximal. Usually IC50 stands for the concentration at which inhibition is half-maximal. Turning to `O=C(c1ccccc1)c1ccsc1C(=O)c1ccccc1`, the EC50 was greater than 200 µM and the IC50 amounted to 36.3 µM.

For the molecule `[N-]=[N+]=CC(=O)OC1Cc2ccccc2C1`, the EC50 was 182 µM and the IC50 is greater than 200 µM.

`CCN(CC)c1ccc2c(c1)Oc1cc(N(CC)CC)ccc1C2c1ccccc1C(=O)O` displayed an EC50 greater than 200 µM and a 50% inhibitory concentration (IC50) greater than 200 µM.

For the molecule `CCCCn1c(N)c(N=O)c(=O)n(CCCC)c1=O`, the EC50 was greater than 200 µM and the IC50 turned out to be 89.1 µM.

For `CCOC(=O)C(=C=C=C(c1ccccc1)c1ccccc1)C(=O)OCC`, the outcome was inactive.

On to `O=C(O)CN(CCN(CC(=O)O)CC(=O)O)CC(=O)O`, for which the EC50 was greater than 200 µM and the concentration for half-maximal inhibition (IC50) is greater than 200 µM.

With `Cc1cccc2oc3c(CC(=O)O)cccc3c(=O)c12`, the EC50 is greater than 200 µM and the IC50 is greater than 100 µM.

`COc1ccc(C(=O)/C=C/c2ccc(OCCCCCCCCCCOc3ccc(/C=C/C(=O)c4ccc(OC)cc4)cc3)cc2)cc1`: the EC50 was greater than 200 µM and the half-maximal inhibitory concentration (IC50) was greater than 200 µM.

As to `COc1ccc(C(=O)C/C(=N/NC(N)=S)C(=O)Nc2ccccc2)cc1`, the EC50 is greater than 25.1 µM and the half-maximal inhibitory concentration (IC50) is greater than 25.1 µM.

Take `O=C1O[C@@H](c2ccccc2)C[C@@H]1CN1CCOCC1`: the result was inactive.

In the case of `CCN=C(NC(=O)c1ccccc1F)SCSC(=NCC)NC(=O)c1ccccc1F`, the EC50 is greater than 200 µM and the IC50 came out at 55 µM.

With `O=C1CCC2(CCCCC2)N1`, the EC50 is greater than 200 µM and the IC50 was greater than 200 µM.

As for `CCCCCCCCCCCCCCCCCC(=O)NCC(COP(=O)(O)O)OCC` (stereo unspecified), the EC50 is greater than 21.4 µM and the IC50 is greater than 21.4 µM.

For the molecule `COC(=O)[C@]1(C)CCC[C@@]2(C)C1CC[C@@]13C=C(C(C)C)[C@@H](CC1=O)CC23` (stereo partly specified), the EC50 is greater than 200 µM and the IC50 is 36.3 µM.

As to `NC1=NCC(CN2CCCC2)O1` (stereo unspecified), the EC50 is greater than 200 µM and the IC50 is greater than 200 µM.

For the molecule `O=C(O)C1CC2C3CC(C(=O)O)C(C3)C2C1` (stereo unspecified), the EC50 is greater than 200 µM and the IC50 is greater than 200 µM.

Take `CNc1ncnc2c1nc(NC1CCCC1)n2C1OC(CO)C(O)C1O` (stereo unspecified): the EC50 is greater than 200 µM and the IC50 was greater than 200 µM.

As for `c1ccc(-c2nnc(SSSSc3nnc(-c4ccccc4)o3)o2)cc1`, the EC50 is greater than 200 µM and the IC50 stood at 107 µM.

Take `O=c1oc2ccccc2c2nc3ccccc3cc12`: the outcome was inactive.

Consider `C(=C\c1csnn1)/c1cccnc1`, for which the EC50 is greater than 316 µM and the concentration for half-maximal inhibition (IC50) is 182 µM.

Turning to `CCN1C(NN)=NS(=O)(=O)c2ccccc21`, the EC50 is greater than 200 µM and the IC50 is greater than 200 µM.

Turning to `OC1CCC[C@@H]1Sc1ccccc1` (stereo partly specified), the outcome was inactive.

Regarding `N#CC1(c2ccccc2)CCOCC1`, the EC50 was greater than 501 µM and the IC50 was greater than 501 µM.

As for `Clc1cccc2nn3ccnc3n12`, the EC50 is greater than 955 µM and the IC50 was 490 µM.

With `Nc1ccn(C2OC(CO)C(F)C2F)c(=O)n1` (stereo unspecified), the EC50 was greater than 501 µM and the IC50 was greater than 501 µM.

Take `N#C/C(=C\c1ccc(Cl)cc1)c1nc2ccccc2c(=O)[nH]1`: the outcome was inactive.

Regarding `c1ccc(Cc2nnc3n2CCC(c2ccccc2)S3)cc1` (stereo unspecified), the EC50 was greater than 200 µM and the IC50 is greater than 200 µM.

Take `N#CC(C#N)C1CN2CCC1CC2` (stereo unspecified): the EC50 is greater than 200 µM and the IC50 was greater than 200 µM.

Regarding `CO/N=C1/c2sccc2[C@H](NC(=O)CNC(=O)OC(C)(C)C)[C@@H]1O`, the EC50 is greater than 200 µM and the concentration for half-maximal inhibition (IC50) is greater than 200 µM.

Take `O=c1c(=O)c2c3c(ccc12)OCO3`: the result was inactive.

On to `CC1=C(CC/C(C)=C/CCC2(C)CCC([C@H](C)C(=O)O)OO2)C(C)(C)CCC1` (stereo partly specified) (tested in a mixture with another compound), for which the outcome was inactive.

For the molecule `Cc1c2ccccc2nc(CSCCO)[n+]1[O-]`, the EC50 was greater than 200 µM and the 50% inhibitory concentration (IC50) is greater than 200 µM.

On to `COC(=O)CCCC=C(c1cc(Br)c(OC)c(C(F)(F)F)c1)c1cc(Br)c(OC)c(C(F)(F)F)c1`, for which the EC50 was greater than 200 µM and the concentration for half-maximal inhibition (IC50) came out at 40.7 µM.

As to `O=Cc1c(O)c(C(=O)Nc2ccc3[nH]c(=O)[nH]c3c2)cc2ccccc12`, the EC50 is greater than 38.9 µM and the IC50 was greater than 38.9 µM.

As to `Cc1cc(NS(=O)(=O)c2ccc(N=c3c4ccccc4n(-c4ccccc4)c4ccccc34)cc2)no1`, the result was inactive.

On to `CC1=C(C(=O)NNC(=O)C(N)=O)CC(C(=O)NNC(=O)C(N)=O)=C(C)N1`, for which the EC50 was greater than 200 µM and the half-maximal inhibitory concentration (IC50) is greater than 200 µM.

For the molecule `[O-]c1c2cc(-[n+]3c(-c4ccccc4)cc(-c4ccccc4)cc3-c3ccccc3)cc1CO[C@@H](c1ccccc1)[C@H](c1ccccc1)OCc1cccc(n1)CO[C@@H](c1ccccc1)[C@H](c1ccccc1)OC2`, the EC50 is greater than 1 µM and the IC50 was determined as 0.0794 µM.

Take `CN(C)CCNc1ncnc2nc(-c3ccccc3)c(-c3ccccc3)nc12`: the EC50 was greater than 200 µM and the 50% inhibitory concentration (IC50) stood at 112 µM.

For the molecule `C/C=C/C=Nc1c(C#N)c2n(c1C(=O)Nc1ccccc1)CCC2`, the EC50 is greater than 100 µM and the IC50 is greater than 100 µM.

For the molecule `COc1ccccc1C1=C2C(=O)N(C)C(c3ccccc3OC)=C2C(=O)N1C`, the EC50 is greater than 100 µM and the IC50 is greater than 100 µM.

Turning to `CCOC(=O)CCC(NC(=O)OCc1ccccc1)C(=O)NNC(=O)OC(C)(C)C` (stereo unspecified), the EC50 is greater than 200 µM and the half-inhibitory concentration (IC50) was greater than 200 µM.

With `COc1ccc(C(c2ccc(C(C)C)cc(=O)c2O)c2ccc3cccnc3c2O)cc1` (stereo unspecified), the result was inactive.

On to `COc1cc2c(cc1OC)C1c3ccccc3CN1CC2` (stereo unspecified), for which the EC50 was greater than 200 µM and the IC50 amounted to 105 µM.

In the case of `COC1O[C@H]2CCN(C(=O)OCc3ccccc3)[C@H]2[C@H]1OCc1ccccc1` (stereo partly specified), the EC50 is greater than 35.5 µM and the IC50 is greater than 35.5 µM.

On to `CCN(CC)CCOC(=O)c1ccc(N=NC2Sc3nc4ccccc4n3C2=O)cc1` (stereo unspecified), for which the result was inactive.

Turning to `Cn1c(=O)c2[nH]c(=O)c(=O)[nH]c2n(C)c1=O`, the EC50 is greater than 200 µM and the concentration for half-maximal inhibition (IC50) was greater than 200 µM.

For `N#C/C(=C\c1cc(O)c(O)c(I)c1)C(=O)NCCCc1ccccc1`, the EC50 is greater than 200 µM and the concentration for half-maximal inhibition (IC50) came to 9.55 µM.

`Nc1nc2ccccc2nc1N`: the EC50 was greater than 200 µM and the IC50 is greater than 200 µM.

For `CC1=C[P+](Cc2ccccc2)(c2ccccc2)CC1` (stereo unspecified), the IC50 was 186 µM and 72.4 µM.

With `Cc1ccc(S(=O)(=O)C2=Cc3ccccc3C2(O)c2ccccc2)cc1` (stereo unspecified), the EC50 is greater than 200 µM and the IC50 worked out at 21.4 µM.

In the case of `CC/C(=N/O)c1ccc2[nH]c3c(C)cc([N+](=O)[O-])c(C)c3c2c1`, the EC50 was greater than 12 µM and the half-inhibitory concentration (IC50) amounted to 7.41 µM.

Turning to `CSCCOC(=O)c1cc(NC(=S)c2ccoc2C)ccc1Cl`, the EC50 is 0.0182 µM and the IC50 worked out at 19.5 µM.

`CCN(CC)C(=O)COc1cc2c(O)c3c(O)c(C)c4c(c13)C(=O)C(C)(O/C=C/C(OC)C(C)C(O)C(C)C(O)C(C)C(O)C(C)/C=C/C=C(\C)C(=O)N2)O4` (stereo unspecified): the EC50 is greater than 200 µM and the IC50 was 29.5 µM.

Take `O=c1cc(O)c2c(ccc3ccccc32)[nH]1`: the EC50 was greater than 200 µM and the 50% inhibitory concentration (IC50) was greater than 200 µM.

`CC(C)c1ccc(C(c2c(O)c3ccccc3oc2=O)c2c(O)c3ccccc3oc2=O)cc1`: the EC50 is greater than 200 µM and the IC50 came to 30.2 µM.

As to `O=C1CSC(=S)N1N1C(=O)CSC1=S`, the EC50 was greater than 200 µM and the half-inhibitory concentration (IC50) is greater than 200 µM.

`Cc1ccc([P+](Cc2ccccc2)(c2ccccc2)c2ccccc2)cc1`: the EC50 is greater than 200 µM and the half-inhibitory concentration (IC50) was determined as 1.1 µM.

On to `CC(=O)OCC1C(C(C)OC(C)=O)CCC2C1CCC1(C)C(OC(C)=O)CCC21` (stereo unspecified), for which the EC50 was greater than 20.4 µM and the half-inhibitory concentration (IC50) turned out to be 16.6 µM.

Consider `COC(=O)C1CCC(=O)N1CN(C(C)=O)c1cccc(O)c1` (stereo unspecified), for which the EC50 was greater than 200 µM and the IC50 was greater than 200 µM.

For the molecule `CCCC(NCCNC(CCC)C(=O)O)C(=O)O` (stereo unspecified), the EC50 is greater than 589 µM and the IC50 was greater than 589 µM.

As for `Brc1ccc2c(C3CN[C@@H](c4c[nH]c5cc(Br)ccc45)CN3)c[nH]c2c1` (stereo partly specified), the EC50 was greater than 100 µM and the IC50 was 4.57 µM.

Take `Cc1cccnc1/N=C/c1c(O)n(C)c(=O)[nH]c1=O`: the EC50 was greater than 200 µM and the IC50 is greater than 200 µM.

As for `CCCCc1c2c(nc3c1CCc1cc4cc5c(nc4nc1-3)-c1nc3c(c(CCCC)c1CC5)CCC/C3=N/OC)/C(=N\OC)CCC2`, the EC50 was greater than 100 µM and the concentration for half-maximal inhibition (IC50) worked out at 0.347 µM.

On to `CC(C)NCCNC(=O)c1ccccc1Nc1c(Cl)cccc1Cl`, for which the EC50 is greater than 200 µM and the IC50 stood at 14.8 µM.

Regarding `Cc1cccc(C2=NC(C)(C)C(C)(C)N=C2c2cccc(C)n2)n1`, the EC50 is greater than 81.3 µM and the IC50 is greater than 81.3 µM.

Take `C/C(CC(=O)Nc1ccc([N+](=O)[O-])cc1)=N\NC(N)=O`: the EC50 was greater than 468 µM and the IC50 is greater than 468 µM.

Take `OC1/C(=C/c2ccccc2)CNC/C1=C\c1ccccc1` (stereo unspecified): the EC50 is greater than 129 µM and the IC50 stood at 79.4 µM.

For `CCN(CC)Cc1c(OC)ccc2[nH]c3c4ccc(Cl)cc4ncc3c12`, the EC50 was greater than 200 µM and the IC50 was 1.1 µM.

`c1ccc2c(c1)c1ccccc1c1nc3c(nc21)CCCC3`: the EC50 is greater than 200 µM and the IC50 was greater than 200 µM.

As for `COC(=O)/C=C/c1ccc2c(c1)CC1(Cc3ccccc3C1)C2`, the EC50 is greater than 200 µM and the IC50 is greater than 200 µM.

As to `O=C(O)CN1CCN2CCCCCN(CC1)CCN(CC(=O)O)CC2`, the EC50 was greater than 200 µM and the IC50 is 12.6 µM.

As for `O=C1CNCCNCC(=O)Nc2ccccc2-c2ccccc2N1`, the result was inactive.

Regarding `CCN1CC(C)Cn2c(=S)[nH]c3cc(Br)cc1c32` (stereo unspecified), the EC50 was 5.01 µM and the IC50 came to 138 µM.

For the molecule `CN(C(=O)C12C3(C(=O)C(C)(C)C)C4C5(C#N)C3C1(C(=O)C(C)(C)C)C5C42C(=O)C(C)(C)C)C(C)(C)C` (stereo unspecified), the EC50 was greater than 52.5 µM and the IC50 was greater than 52.5 µM.
